Molecular target: F508delCFTR (Homo sapiens, UniProt P13569, DEL508-508)
Assay: Cell Surface Expression-Horse Radish Peroxidase (CSE-HRP) assay
Type: cell-based
Set-up: expressed in transfected cells; host or cells: CFBE41o- human lung derived epithelial cell line, doxycycline-inducible
Settings: CFBE4lo-F508delCFTR-HRP cells; for EC50: 18-24 hours at 33° C., 8-point curve, highest concentration 20 μM, luminescence readout
Procedure, shortened: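 Following 18-24 h compound exposure at 33° C. Expression was doxycycline-induced beforehand. % activity versus DMSO and a 3 μM corrector control gave maximum activity and EC50 from a variable-Hill sigmoidal fit.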

[1] = maximum % activity at any tested concentration, normalized to on-plate positive control (3 μM Example 1)

F508delCFTR, sequence (P13569 with tags, fused parts or gaps DEL508-508): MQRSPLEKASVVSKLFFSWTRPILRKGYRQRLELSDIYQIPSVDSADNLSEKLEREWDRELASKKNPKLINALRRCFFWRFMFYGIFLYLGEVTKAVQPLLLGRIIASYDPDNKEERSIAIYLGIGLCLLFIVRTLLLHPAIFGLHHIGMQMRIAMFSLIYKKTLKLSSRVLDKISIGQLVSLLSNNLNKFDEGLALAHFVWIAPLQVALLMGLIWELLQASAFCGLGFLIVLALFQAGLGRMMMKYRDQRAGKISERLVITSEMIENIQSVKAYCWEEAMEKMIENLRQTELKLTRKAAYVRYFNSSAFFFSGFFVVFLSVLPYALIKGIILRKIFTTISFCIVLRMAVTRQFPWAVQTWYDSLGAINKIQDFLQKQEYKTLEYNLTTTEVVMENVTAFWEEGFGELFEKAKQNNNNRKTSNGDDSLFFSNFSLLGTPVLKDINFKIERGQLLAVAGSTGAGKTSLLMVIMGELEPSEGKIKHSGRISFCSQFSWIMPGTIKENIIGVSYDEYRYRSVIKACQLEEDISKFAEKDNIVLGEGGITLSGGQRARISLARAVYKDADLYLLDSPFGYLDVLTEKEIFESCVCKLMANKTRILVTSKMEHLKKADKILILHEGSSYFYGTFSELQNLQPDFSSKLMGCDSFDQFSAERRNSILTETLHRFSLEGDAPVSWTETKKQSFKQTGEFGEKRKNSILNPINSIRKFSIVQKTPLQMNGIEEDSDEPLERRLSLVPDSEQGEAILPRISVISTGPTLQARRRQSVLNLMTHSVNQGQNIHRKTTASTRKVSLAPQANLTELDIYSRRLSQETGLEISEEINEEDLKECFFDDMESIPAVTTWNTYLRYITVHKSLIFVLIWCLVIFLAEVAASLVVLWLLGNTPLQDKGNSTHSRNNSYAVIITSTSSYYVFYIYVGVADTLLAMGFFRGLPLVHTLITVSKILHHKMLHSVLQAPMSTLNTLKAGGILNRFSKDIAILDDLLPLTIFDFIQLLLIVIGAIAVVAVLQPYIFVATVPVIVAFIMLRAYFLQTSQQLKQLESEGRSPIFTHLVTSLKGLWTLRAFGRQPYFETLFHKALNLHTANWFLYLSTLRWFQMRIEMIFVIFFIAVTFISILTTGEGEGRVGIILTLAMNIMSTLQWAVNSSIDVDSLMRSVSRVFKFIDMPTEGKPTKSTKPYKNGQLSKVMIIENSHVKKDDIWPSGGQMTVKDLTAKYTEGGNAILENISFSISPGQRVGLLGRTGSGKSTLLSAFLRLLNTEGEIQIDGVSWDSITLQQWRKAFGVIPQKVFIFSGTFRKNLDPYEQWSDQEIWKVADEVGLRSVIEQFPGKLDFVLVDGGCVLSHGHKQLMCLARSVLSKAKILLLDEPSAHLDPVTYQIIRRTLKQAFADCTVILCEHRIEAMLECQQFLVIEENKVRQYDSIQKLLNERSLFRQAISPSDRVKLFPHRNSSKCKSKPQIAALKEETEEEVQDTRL

Structure (SMILES)	EC50	Emax [1]	Maximum % activity (%) [1]
O=C(NC1CC(c2ccccc2)Oc2ccccc21)C1(c2ccc3c(c2)OC(F)(F)O3)CC1 (stereo not drawn) [Example 67, 1-(2,2-difluoro-1,3-benzodioxol-5-yl)-N-(2-phenyl-3,4-dihydro-2H-chromen-4-yl)cyclopropanecarboxamide]	5.89 µM	128%	
CC1(C)C[C@@H](NC(=O)C2(c3ccc4c(c3)OC(F)(F)O4)CC2)c2ccc(F)cc2O1 [Example 86, 1-(2,2-difluoro-1,3-benzodioxol-5-yl)-N-[(4R)-7-fluoro-2,2-dimethyl-3,4-dihydro-2H-chromen-4-yl]cyclopropanecarboxamide]	3.5 µM	101%	
COC(=O)c1ccc([C@H]2C[C@@H](NC(=O)C3(c4ccc5c(c4)OC(F)(F)O5)CC3)c3ccccc3O2)cc1 [Example 120, methyl 4-[(2R,4R)-4-({[1-(2,2-difluoro-1,3-benzodioxol-5-yl)cyclopropyl]carbonyl}amino)-3,4-dihydro-2H-chromen-2-yl]benzoate]	0.5 µM	110%	
C[C@]1(C(F)F)C[C@@H](NC(=O)C2(c3ccc4c(c3)OC(F)(F)O4)CC2)c2ccc(Cl)cc2O1 [Example 84, N-[(2R,4R)-7-chloro-2-(difluoromethyl)-2-methyl-3,4-dihydro-2H-chromen-4-yl]-1-(2,2-difluoro-1,3-benzodioxol-5-yl)cyclopropanecarboxamide]	2.24 µM	91%	
Cc1ccc2c(c1)O[C@@H](c1cccc(C(=O)NC[C@@H](O)CO)c1)C[C@H]2NC(=O)C1(c2ccc3c(c2)OC(F)(F)O3)CC1 [Example 48, 3-[(2R,4R)-4-({[1-(2,2-difluoro-1,3-benzodioxol-5-yl)cyclopropyl]carbonyl}amino)-7-methyl-3,4-dihydro-2H-chromen-2-yl]-N-[(2R)-2,3-dihydroxypropyl]benzamide]	1 µM	104%	
O=C(O)C1CC(C2CC(NC(=O)C3(c4ccc5c(c4)OC(F)(F)O5)CC3)c3ccccc3O2)C1 (stereo not drawn) [Example 152, 3-[4-({[1-(2,2-difluoro-1,3-benzodioxol-5-yl)cyclopropyl]carbonyl}amino)-3,4-dihydro-2H-chromen-2-yl]cyclobutanecarboxylic acid]	6.35 µM	59%	
COC(=O)c1ccc([C@H]2C[C@H](NC(=O)C3(c4ccc5c(c4)OC(F)(F)O5)CC3)c3ccc(OC)cc3O2)nc1 (stereo in doubt) [Example 159, methyl rel-6-[(2R,4S)-4-({[1-(2,2-difluoro-1,3-benzodioxol-5-yl)cyclopropyl]carbonyl}amino)-7-methoxy-3,4-dihydro-2H-chromen-2-yl]pyridine-3-carboxylate]	1.36 µM	92%	
COC(=O)c1ccc([C@@H]2C[C@@H](NC(=O)C3(c4ccc5c(c4)OC(F)(F)O5)CC3)c3ccc(OC)cc3O2)nc1 (stereo in doubt) [Example 160, methyl rel-6-[(2S,4R)-4-({[1-(2,2-difluoro-1,3-benzodioxol-5-yl)cyclopropyl]carbonyl}amino)-7-methoxy-3,4-dihydro-2H-chromen-2-yl]pyridine-3-carboxylate]	0.6 µM	104%	
COc1ccc2c(c1)O[C@@H](C(=O)NC1CCS(=O)(=O)CC1)C[C@@H]2NC(=O)C1(c2ccc3c(c2)OC(F)(F)O3)CC1 (racemic) [Example 191, rac-(2R,4S)-4-({[1-(2,2-difluoro-1,3-benzodioxol-5-yl)cyclopropyl]carbonyl}amino)-N-(1,1-dioxidotetrahydro-2H-thiopyran-4-yl)-7-methoxy-3,4-dihydro-2H-chromene-2-carboxamide]	4.1 µM	51%	
C[C@]1(C(F)F)C[C@@H](NC(=O)C2(c3ccc4c(c3)OC(F)(F)O4)CC2)c2ccccc2O1 [Example 81, 1-(2,2-difluoro-1,3-benzodioxol-5-yl)-N-[(2R,4R)-2-(difluoromethyl)-2-methyl-3,4-dihydro-2H-chromen-4-yl]cyclopropanecarboxamide]	4.5 µM	98%	
Cc1ccc2c(c1)O[C@@H](c1cccc(C(=O)N3CCOC(CO)C3)c1)C[C@H]2NC(=O)C1(c2ccc3c(c2)OC(F)(F)O3)CC1 (stereo partly drawn) [Example 53, 1-(2,2-difluoro-1,3-benzodioxol-5-yl)-N-[(2R,4R)-2-(3-{[2-(hydroxymethyl)morpholin-4-yl]carbonyl}phenyl)-7-methyl-3,4-dihydro-2H-chromen-4-yl]cyclopropanecarboxamide]	1.76 µM	90%	
O=C(O)c1csc([C@@H]2C[C@H](NC(=O)C3(c4ccc5c(c4)OC(F)(F)O5)CC3)c3ccccc3O2)n1 (stereo in doubt) [Example 143, rel-2-[(2S,4S)-4-({[1-(2,2-difluoro-1,3-benzodioxol-5-yl)cyclopropyl]carbonyl}amino)-3,4-dihydro-2H-chromen-2-yl]-1,3-thiazole-4-carboxylic acid]	8.5 µM	27%	
COC(=O)c1cccc([C@H]2C[C@@H](NC(=O)C3(c4ccc5c(c4)OC(F)(F)O5)CC3)c3ccccc3O2)c1 [Example 8, methyl 3-[(2R,4R)-4-({[1-(2,2-difluoro-1,3-benzodioxol-5-yl)cyclopropyl]carbonyl}amino)-3,4-dihydro-2H-chromen-2-yl]benzoate]	1.75 µM	98%	
CCOC(=O)c1cccc([C@@H]2C[C@H](NC(=O)C3(c4ccc5c(c4)OC(F)(F)O5)CC3)c3ccncc3O2)c1 (stereo in doubt) [Example 24, ethyl rel-3-[(2S,4S)-4-({[1-(2,2-difluoro-1,3-benzodioxol-5-yl)cyclopropyl]carbonyl}amino)-3,4-dihydro-2H-pyrano[2,3-c]pyridin-2-yl]benzoate]	8.37 µM	63%	
COC(=O)c1cccc([C@H]2C[C@@H](NC(=O)C3(c4ccc5c(c4)OC(F)(F)O5)CC3)c3ccc(F)nc3O2)c1 (racemic) [Example 113, methyl rac-3-[(2R,4R)-4-({[1-(2,2-difluoro-1,3-benzodioxol-5-yl)cyclopropyl]carbonyl}amino)-7-fluoro-3,4-dihydro-2H-pyrano[2,3-b]pyridin-2-yl]benzoate]	3.55 µM	49%	
O=C(O)c1ccc([C@H]2C[C@@H](NC(=O)C3(c4ccc5c(c4)OC(F)(F)O5)CC3)c3ccc(O)cc3O2)cc1 [Example 128, 4-[(2R,4R)-4-({[1-(2,2-difluoro-1,3-benzodioxol-5-yl)cyclopropyl]carbonyl}amino)-7-hydroxy-3,4-dihydro-2H-chromen-2-yl]benzoic acid]	4.57 µM	66%	
Cc1ccc2c(c1)O[C@@H](c1cccc(C(=O)O)c1)C[C@H]2NC(=O)C1(c2ccc3c(c2)OC(F)(F)O3)CC1 [Example 16, 3-[(2R,4R)-4-({[1-(2,2-difluoro-1,3-benzodioxol-5-yl)cyclopropyl]carbonyl}amino)-7-methyl-3,4-dihydro-2H-chromen-2-yl]benzoic acid]	0.37 µM	108%	
O=C(O)c1cccc([C@H]2C[C@@H](NC(=O)C3(c4ccc5c(c4)OC(F)(F)O5)CC3)c3ccc(Cl)nc3O2)c1 (racemic) [Example 114, rac-3-[(2R,4R)-7-chloro-4-({[1-(2,2-difluoro-1,3-benzodioxol-5-yl)cyclopropyl]carbonyl}amino)-3,4-dihydro-2H-pyrano[2,3-b]pyridin-2-yl]benzoic acid]	4.76 µM	61%	
COC(=O)c1ccc2c(c1)[C@H](NC(=O)C1(c3ccc4c(c3)OC(F)(F)O4)CC1)C[C@H](C1CCCC(OC)C1)O2 (stereo partly drawn) [Example 46, methyl (2R,4R)-4-({[1-(2,2-difluoro-1,3-benzodioxol-5-yl)cyclopropyl]carbonyl}amino)-2-(3-methoxycyclohexyl)-3,4-dihydro-2H-chromene-6-carboxylate]	5.14 µM	27%	
COc1ccc2c(c1)O[C@@H](c1ccc(C(=O)O)cn1)C[C@H]2NC(=O)C1(c2ccc3c(c2)OC(F)(F)O3)CC1 (relative stereo) [Example 165, rel-6-[(2R,4R)-4-({[1-(2,2-difluoro-1,3-benzodioxol-5-yl)cyclopropyl]carbonyl}amino)-7-methoxy-3,4-dihydro-2H-chromen-2-yl]pyridine-3-carboxylic acid]	0.09 µM	123%	
O=C(O)c1cnc(C2CC(NC(=O)C3(c4ccc5c(c4)OC(F)(F)O5)CC3)c3ccccc3O2)s1 (single isomer, unassigned) [Example 136]	3.36 µM		90%
O=C(O)c1cccc([C@H]2C[C@@H](NC(=O)C3(c4ccc5c(c4)OC(F)(F)O5)CC3)c3ccc(OCCF)cc3O2)c1 [Example 106, 3-[(2R,4R)-4-({[1-(2,2-difluoro-1,3-benzodioxol-5-yl)cyclopropyl]carbonyl}amino)-7-(2-fluoroethoxy)-3,4-dihydro-2H-chromen-2-yl]benzoic acid]	0.31 µM	88%	
CCOC(=O)c1csc([C@H]2C[C@H](NC(=O)C3(c4ccc5c(c4)OC(F)(F)O5)CC3)c3ccccc3O2)n1 (relative stereo) [Example 141, ethyl rel-2-[(2R,4S)-4-({[1-(2,2-difluoro-1,3-benzodioxol-5-yl)cyclopropyl]carbonyl}amino)-3,4-dihydro-2H-chromen-2-yl]-1,3-thiazole-4-carboxylate]	3.05 µM	54%	
COc1ccc2c(c1)O[C@@H](C(=O)N1CCN(CCO)CC1)C[C@@H]2NC(=O)C1(c2ccc3c(c2)OC(F)(F)O3)CC1 (racemic) [Example 187, rac-1-(2,2-difluoro-1,3-benzodioxol-5-yl)-N-[(2R,4S)-2-{[4-(2-hydroxyethyl)piperazin-1-yl]carbonyl}-7-methoxy-3,4-dihydro-2H-chromen-4-yl]cyclopropanecarboxamide]	1.95 µM	76%	
